Values of other authors in patent US9561225B2, “Pharmaceutical formulation containing opioid agonist, opioid antagonist and gelling agent” (Purdue Pharma L.P., priority 2001, dated 2017).

Columns and labels:
[1] = after oral administration
[2] = system: morphine-like opioid agonist / heroin effects

Compound | duration of action [1] | time of absorption (following oral administration) | protein binding (in vivo) | block of the effect of 25 mg of heroin ([2]; 1 mg intravenously) | effect on morphine-like opioid agonist effects ([2]; 0.4-0.8 mg intramuscularly or intravenously in man)
O=C1CC[C@@]2(O)[C@H]3Cc4ccc(O)c5c4[C@@]2(CCN3CC2CC2)[C@H]1O5 [naltrexone] | ~24 h | ≤ 1 h | approximately 21% | – | –
C=CCN1CC[C@]23c4c5ccc(O)c4O[C@H]2C(=O)CC[C@@]3(O)[C@H]1C5 [naloxone] | – | – | – | completely block | prevent or promptly reverse the effects of morphine-like opioid agonist
C[C@H]1[C@H]2Cc3ccc(O)cc3[C@]1(C)CCN2CC1CC1 [cyclazocine] | ~24 h | – | – | – | –
